Experiments:
Rattus norvegicus = assay: Antiinflammatory activity against TNBS-induced colitis in Sprague-Dawley rat model assessed as reduction in colon TNFalpha level at 1 mg/kg, po administered for 5 days by ELISA; format: functional, organism-based; details: 120 h
[1] = Inhibition of C57BL/6 mouse Th17 cell differentiation from CD4+ T cells assessed as reduction in IL-17a mRNA expression incubated for 96 hrs by qPCR analysis; format: functional, cell-based; details: C57BL/6, Th17, 96 h
[2] = target: Signal transducer and activator of transcription 3 (Homo sapiens, UniProt P40763); assay: Inhibition of STAT3 phosphorylation in human HepG2 cells by immuno-fluorescence analysis; format: cell-based
Mus musculus [3] = assay: Anti-asthmatic activity in OVA-induced ip dosed female BALB/c mouse model assessed as reduction in pulmonary IL-13 level administered for 30 min measured after 21 days by ELISA; format: functional, organism-based
Mus musculus [4] = assay: Anti-inflammatory activity against DSS-induced acute colitis C57BL/6J mouse model assessed as reduction in IL-1beta level in colon at 10 to 20 mg/kg, po measured for 7 days by ELISA analysis; format: functional, organism-based; details: 168 h

Chain of Signal transducer and activator of transcription 3 (P40763 whole entry): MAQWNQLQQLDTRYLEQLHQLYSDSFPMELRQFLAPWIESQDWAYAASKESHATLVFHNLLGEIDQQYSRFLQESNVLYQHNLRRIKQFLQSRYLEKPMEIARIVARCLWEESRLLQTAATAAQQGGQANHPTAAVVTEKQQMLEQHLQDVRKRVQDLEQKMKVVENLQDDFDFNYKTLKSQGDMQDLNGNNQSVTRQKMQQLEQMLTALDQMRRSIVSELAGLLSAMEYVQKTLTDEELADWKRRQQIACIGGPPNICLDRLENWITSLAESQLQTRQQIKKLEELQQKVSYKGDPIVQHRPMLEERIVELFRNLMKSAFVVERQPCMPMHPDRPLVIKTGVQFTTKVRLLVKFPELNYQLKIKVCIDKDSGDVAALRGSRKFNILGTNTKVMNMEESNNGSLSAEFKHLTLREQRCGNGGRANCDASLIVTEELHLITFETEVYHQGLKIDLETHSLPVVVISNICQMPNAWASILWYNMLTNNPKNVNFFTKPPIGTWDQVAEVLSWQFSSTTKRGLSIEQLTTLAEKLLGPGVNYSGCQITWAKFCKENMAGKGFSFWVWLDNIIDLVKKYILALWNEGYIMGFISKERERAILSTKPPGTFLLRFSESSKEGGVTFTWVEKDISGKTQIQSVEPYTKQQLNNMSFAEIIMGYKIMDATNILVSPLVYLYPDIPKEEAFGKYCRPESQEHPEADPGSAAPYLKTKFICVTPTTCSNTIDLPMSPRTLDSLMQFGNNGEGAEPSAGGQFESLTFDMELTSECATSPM

Work on `Cc1ccc(S(=O)(=O)OCC(=O)Nc2ccc(C(=O)O)c(O)c2)cc1` yielded an IC50 (Rattus norvegicus) of 86000 nM.

With `NS(=O)(=O)c1cccc2c1C(=O)c1cccc(O)c1C2=O` the IC50 [1] was 180 nM.

Work on `CN(C)C(=O)Oc1cccc2c1C(=O)c1cccc(S(N)(=O)=O)c1C2=O` yielded an IC50 [1] of 220 nM.

In the case of `CC1CC(=O)c2c(ccc3c2C(=O)c2cccc(O)c2C3=O)C1` (stereo not drawn), the IC50 [2] is reported as 12200 nM.

Work on `NC(=O)c1cnc(Nc2ccc(N3CCOCC3)cc2)nc1NCc1c(F)ccc(F)c1F` yielded an IC50 (Mus musculus [3]) of 0.7 nM.

Compound `NC(=O)c1cnc(NCCc2ccc(O)c(Cl)c2)nc1NCc1ccccc1` has an IC50 (Mus musculus [3]) of 21 nM.

In the case of `COc1ccc(S(=O)(=O)Nc2cc(-c3c(O)ccc4ccccc34)c(O)c3ccccc23)cc1` [C-188-9], the IC50 (Rattus norvegicus) is reported as 4000 nM.

In the case of `Cc1cc(OCCCS(C)(=O)=O)cc(C)c1-c1cccc(COc2ccc3c(c2)OC[C@H]3CC(=O)O)c1` [FASIGLIFAM], the IC50 (Mus musculus [4]) is reported as 4740 nM.

— ChEMBL document CHEMBL6120939, “STATs, promising targets for the treatment of autoimmune and inflammatory diseases” (Eur J Med Chem, 2024)
